Data from paper PMC6680510, “Benzotriazine Di-Oxide Prodrugs for Exploiting Hypoxia and Low Extracellular pH in Tumors” (Molecules, 2019).
Where “and” joins values, the source holds several entries; their conditions need not be identical. Equal entries are not always repeated. Where two headings read alike, the source gives them in different places.

Tests used:
FaDu cells = assay: IC50 assay (inhibition of proliferation, 4 h exposure, SRB); format: cell-based; conditions: for IC50: Homo sapiens, 4 h
SiHa cells [1] = assay: as above; conditions: SiHa; for IC50: Homo sapiens, 4 h
Protocol: (§1) Cells were seeded in 96-well plates (SiHa or FaDu 1500 cells/well, UT-SCC-74B 800 cells/well) in 100 μL. After incubation for 2 h, the drugs were added in 50 μL of the same titrated medium at 3× the final concentration to duplicate the wells. After a further 4 h the plates were checked for drug precipitation using a phase contrast microscope, then drugs were removed by aspirating and washing with the standard (pH 7.4) medium, then aspirating again and adding 150 μL of the medium. Cultures were then grown for 5 days before staining with sulphorhodamine B and measuring absorbance, with the estimation of IC50 values using 4-parameter logistic regression, as previously carried out.
The medium and plasticware was equilibrated in the chamber for 3 days prior to use. In the anoxia experiments, FaDu cells were plated in poly-L-lysine coated plates (Corning Cat # 356461) to improve attachment.
Cells were subsequently grown under standard cell culture conditions (oxia, pHe 7.4) for 5 days before staining with sulforhodamine B (SRB). […] (B) SN30000 (2). (C) BTO acid 4a. Values are means and errors are ranges for duplicate cultures in a single experiment. Fitted curves are 4-parameter logistic regressions. PCR = pH cytotoxicity ratio. ACR = anoxia cytotoxicity ratio. TMR = tumor microenvironment ratio.

SiHa cells [2] = assay: IC50 assay modified for chronic hypoxia (oxia, hypoxia, anoxia); format: cell-based; conditions: for IC50: Homo sapiens
Protocol: There are relatively few viable cells in tumors at O2 concentrations as low as in the above anoxic experiments. In addition, extensive changes in gene expression occur under chronic exposure to intermediate O2 concentrations (chronic hypoxia), including the expression of proteins that regulate pHi. […] Therefore, oxic and anoxic exposures were also tested in these same experiments. The 24 h adaptation to hypoxia had little effect on the subsequent growth of the cultures at either pHe value (Figure S6).
To minimize problems with poor cell attachment under chronic hypoxia, the drugs were added from a 3-fold dilution series made in a separate plate, rather than by serial dilution in the plates containing the cells. In addition, the drugs were removed after the 4 h exposure by centrifuging the plates (200g × 5 min) prior to each aspiration. The same modifications were used for the oxic drug exposures in these experiments.

UT-SCC-74B cells = assay: IC50 assay (inhibition of proliferation, 4 h exposure, SRB); format: cell-based; conditions: for IC50: Homo sapiens, 4 h; for IC50 / PCR Anoxic (IC50 at pHe 7.4/IC50 at pHe 6.5) / PCR oxic (IC50 at pHe 7.4/IC50 at pHe 6.5): UT-SCC-74B
Protocol: as §1
The medium and plasticware was equilibrated in the chamber for 3 days prior to use. In the anoxia experiments, FaDu cells were plated in poly-L-lysine coated plates (Corning Cat # 356461) to improve attachment. […]
Footnotes: a Number of experiments. b Anoxic cytotoxicity ratio = oxic IC50/anoxic IC50. c pH
cytotoxicity ratio = IC50 at pHe 7.4/ IC50 at pHe 6.5. d Overall ratio = oxic IC50 pHe 7.4 / anoxic IC50 pHe
6.5. Values are means and errors are SEM. For ratios, the errors are root mean square SEM. […]

[3] = Solubility in AlphaMEM + 5% FBS, pH 7.4; conditions: culture medium (AlphaMEM + 5% FBS), pH 7.4, plasma or biological fluid, kinetic from dmso stock
[4] = pHe 6.5, 4 h, anoxic, read-out: Anoxic IC50
[5] = pHe 6.5, 4 h, oxic, read-out: Oxic IC50
[6] = pHe 7.4, 4 h, anoxic, read-out: Anoxic IC50
[7] = pHe 7.4, 4 h, oxic, read-out: Oxic IC50
[8] = read-out: Anoxic IC50, SiHa, pHe 6.5, 4 h, anoxic
[9] = read-out: Anoxic IC50, SiHa, pHe 7.4, 4 h, anoxic
[10] = read-out: Oxic IC50, SiHa, pHe 6.5, 4 h, oxic
[11] = read-out: Oxic IC50, SiHa, pHe 7.4, 4 h, oxic

Work on `Cc1ccc2c(c1)[n+]([O-])nc(NCCCC(=O)O)[n+]2[O-]` (hydrate or solvate) [Compound 12a, 3-((3-Carboxypropyl)amino)-7-methylbenzo[e][1,2,4]triazine 1,4-Dioxide] yielded a melting point of 185 to 188 °C.
`O=C(O)CCCc1ccc(N(CCCl)CCCl)cc1` [Compound 1, chlorambucil] showed an IC50 (FaDu cells; [4]) of 2.26 ± 0.37 µM, an IC50 (FaDu cells; [5]) of 3.19 ± 0.78 µM and an IC50 (FaDu cells; [6]) of 13.1 ± 8.7 µM. For the same compound, the IC50 (FaDu cells; [7]) was 15 ± 1.6 µM, the IC50 (SiHa cells [1]; [8]) was 3.78 ± 1.51 µM and the IC50 (SiHa cells [1]; [9]) was 13.6 ± 1.1 µM. For the same compound, the IC50 (SiHa cells [1]; [10]) was 1.58 ± 0.27 µM, the IC50 (SiHa cells [1]; [11]) was 12.7 ± 1.2 µM and the “PCR (IC50 for pHe 7.4/IC50 for pHe 6.5)” value (SiHa cells [2]; 0.2% O2) was 9.9 ± 2.8. For the same compound, the “PCR (IC50 for pHe 7.4/IC50 for pHe 6.5)” value (SiHa cells [2]; 20% O2) was 6.5 ± 2.0, the “PCR (IC50 for pHe 7.4/IC50 for pHe 6.5)” value (SiHa cells [2]; <0.01% O2) was 7.40 ± 1.64 and the IC50 (SiHa cells [2]; 0.2% O2 (24 h before and during 4 h exposure), pHe 6.5) was 1.75 ± 0.44 µM. It also gave an IC50 (SiHa cells [2]; 0.2% O2 (24 h before and during 4 h exposure), pHe 7.4) of 17.3 ± 2.53 µM, an IC50 (SiHa cells [2]; 4 h, 20% O2, pHe 6.5, 4 h) of 1.84 ± 0.48 µM and an IC50 (SiHa cells [2]; 4 h, 20% O2, pHe 7.4, 4 h) of 12 ± 2 µM. For the same compound, the IC50 (SiHa cells [2]; 4 h, <0.01% O2, pHe 6.5, 4 h) was 1.49 ± 0.18 µM, the IC50 (SiHa cells [2]; 4 h, <0.01% O2, pHe 7.4, 4 h) was 11 ± 2.1 µM and the “ACR (IC50 for 20% O2/IC50 for <0.01% O2)” value (SiHa cells [2]; pHe 6.5) was 1.23 ± 0.34. For the same compound, the “HCR (IC50 for 20% O2/IC50 for 0.2% O2)” value (SiHa cells [2]; pHe 6.5) was 1.05 ± 0.38, the “ACR (IC50 for 20% O2/IC50 for <0.01% O2)” value (SiHa cells [2]; pHe 7.4) was 1.09 ± 0.27 and the “HCR (IC50 for 20% O2/IC50 for 0.2% O2)” value (SiHa cells [2]; pHe 7.4) was 0.69 ± 0.15. The “ACR (oxic IC50/anoxic IC50)” value (UT-SCC-74B cells) was 1.26 ± 0.20 and 0.94 ±0.21, the IC50 (UT-SCC-74B cells; pHe 6.5, 4 h, 20% O2, read-out: Oxic IC50) was 0.8 ± 0.17 µM and the IC50 (UT-SCC-74B cells; pHe 6.5, 4 h, <0.01% O2, read-out: Anoxic IC50) was 0.85 ± 0.06 µM. The IC50 (UT-SCC-74B cells; pHe 7.4, 4 h, 20% O2, read-out: Oxic IC50) was 6.34 ± 0.88 µM, the IC50 (UT-SCC-74B cells; pHe 7.4, 4 h, <0.01% O2, read-out: Anoxic IC50) was 5.05 ± 0.38 µM and the “PCR Anoxic (IC50 at pHe 7.4/IC50 at pHe 6.5)” value (from here on “PCR Anoxic”) (UT-SCC-74B cells; listed as CHL) was 5.9. The “PCR Anoxic” value (UT-SCC-74B cells; listed as CHL (1)) was 5.94 ± 0.61, the “PCR oxic (IC50 at pHe 7.4/IC50 at pHe 6.5)” value (“PCR oxic” below) (UT-SCC-74B cells; listed as CHL) was 7.9 and the “PCR oxic” value (UT-SCC-74B cells; listed as CHL (1)) was 7.93 ± 2.01.
In the case of `Cc1ccc2c(c1)[n+]([O-])nc(CCC(=O)O)[n+]2[O-]` [Compound 5a, 3-(2-Carboxyethyl)-7-methylbenzo[e][1,2,4]triazine 1,4-Dioxide], the “TMR (oxic IC50 pHe 7.4/anoxic IC50 pHe 6.5)” value (FaDu cells) is reported as 13.9 ± 1.7, the IC50 (FaDu cells; [4]) is reported as 203 ± 18 µM and the IC50 (FaDu cells; [5]) is reported as 1100 ± 110 µM. For the same compound, the IC50 (FaDu cells; [6]) was 924 ± 64 µM, the IC50 (FaDu cells; [7]) was 2770 ± 690 µM and the “PCR Anoxic” value (FaDu cells; anoxic) was 4.29 ± 0.55. The “PCR oxic” value (FaDu cells; oxic) was 2.55 ± 0.32, the “ACR (oxic IC50/anoxic IC50)” value (FaDu cells; pHe 6.5) was 5.49 ± 0.26 and the “ACR (oxic IC50/anoxic IC50)” value (FaDu cells; pHe 7.4) was 3.00 ± 0.22. It also gave an IC50 (SiHa cells [1]; [8]) of 225 ± 38 µM, an IC50 (SiHa cells [1]; [9]) of 542 ± 113 µM and an IC50 (SiHa cells [1]; [10]) of 449 ± 188 µM. The IC50 (SiHa cells [1]; [11]) was greater than 3000 µM, the “TMR (overall TME ratio = oxic IC50 pHe 7.4/anoxic IC50 pHe 6.5)” value (SiHa cells [1]) was greater than 13 and the “PCR Anoxic” value (SiHa cells [1]; anoxic) was 2.41 ± 0.64. For the same compound, the “PCR oxic” value (SiHa cells [1]; oxic) was greater than 6.7, the “ACR (anoxic cytotoxicity ratio = oxic IC50/anoxic IC50)” value (SiHa cells [1]; pHe 6.5) was 1.99 ± 0.90 and the “ACR (anoxic cytotoxicity ratio = oxic IC50/anoxic IC50)” value (SiHa cells [1]; pHe 7.4) was greater than 5.5. For the same compound, the melting point was 181 to 183 °C (dec.) and the solubility [3] was greater than 980 µM.
For `COC(=O)CCc1n[n+]([O-])c2cc(C)ccc2[n+]1[O-]` [Compound 5b, 3-(3-Methoxy-3-oxopropyl)-7-methylbenzo[e][1,2,4]triazine 1,4-Dioxide], the melting point was 165 to 167 °C and the solubility [3] was greater than 950 µM.
`COC(=O)CCc1n[n+]([O-])c2ccc(C)cc2[n+]1[O-]` [Compound 6b, 3-(3-Methoxy-3-oxopropyl)-6-methylbenzo[e][1,2,4]triazine 1,4-Dioxide] gave a melting point of 166 to 168 °C and a solubility [3] greater than 900 µM.
